Data reported in article PMC5740388, “In Vitro Antibacterial Properties of Cefiderocol, a Novel Siderophore Cephalosporin, against Gram-Negative Bacteria” (Antimicrobial Agents and Chemotherapy, 2017).
pIC50: −log10 of the molar value. ≈ marks a conversion by molar mass, not a printed value. Where two headings read alike, the source gives them in different places.

Columns and labels:
[1] = target: T1, PBP1a of E. coli NIHJ JC-2 (Escherichia coli, UniProt P02918); assay: competition with […]benzylpenicillin for PBPs; assay type: binding; details: covalent
T1 construct: gene mrcA
T1 sequence (P02918 whole entry): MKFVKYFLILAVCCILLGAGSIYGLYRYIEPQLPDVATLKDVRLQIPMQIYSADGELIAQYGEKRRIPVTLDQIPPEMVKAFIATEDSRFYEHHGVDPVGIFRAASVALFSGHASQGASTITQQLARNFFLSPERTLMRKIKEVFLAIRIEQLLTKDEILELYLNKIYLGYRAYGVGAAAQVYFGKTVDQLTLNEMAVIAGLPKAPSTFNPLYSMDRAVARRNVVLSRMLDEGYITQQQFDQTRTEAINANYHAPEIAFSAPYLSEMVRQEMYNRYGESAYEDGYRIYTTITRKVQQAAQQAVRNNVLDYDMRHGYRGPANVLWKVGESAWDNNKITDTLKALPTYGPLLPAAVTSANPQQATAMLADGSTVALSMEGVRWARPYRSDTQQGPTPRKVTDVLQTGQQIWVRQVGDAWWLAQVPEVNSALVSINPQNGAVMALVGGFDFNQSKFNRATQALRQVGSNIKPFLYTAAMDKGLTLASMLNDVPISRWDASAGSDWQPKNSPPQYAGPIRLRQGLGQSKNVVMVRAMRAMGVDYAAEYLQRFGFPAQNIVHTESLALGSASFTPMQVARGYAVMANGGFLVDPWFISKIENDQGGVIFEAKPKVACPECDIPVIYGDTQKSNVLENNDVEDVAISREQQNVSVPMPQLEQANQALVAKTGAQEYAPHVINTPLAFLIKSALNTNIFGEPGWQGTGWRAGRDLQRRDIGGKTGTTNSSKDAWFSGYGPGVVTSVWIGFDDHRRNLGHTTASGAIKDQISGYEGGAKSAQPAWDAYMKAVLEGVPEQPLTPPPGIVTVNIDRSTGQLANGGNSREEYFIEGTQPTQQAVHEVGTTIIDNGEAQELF

[2] = tested on: T2, PBP1a and PBP1b of A. baumannii ATCC 17978 (not separated); assay: competition with Bocillin FL for PBPs; assay type: binding, Acinetobacter baumannii; details: covalent; joint value for PBP1a and PBP1b
T2 construct: gene ponA; one joint IC50 for PBP1a and PBP1b
Description: competition with Bocillin FL for PBPs on PBP1a and PBP1b of A. baumannii ATCC 17978 (not separated)

[3] = target: T3, PBP2 of E. coli NIHJ JC-2 (Escherichia coli, UniProt P0AD65); assay: competition with […]benzylpenicillin for PBPs; assay type: binding; details: covalent
T3 construct: gene mrdA
T3 sequence (P0AD65 1-633): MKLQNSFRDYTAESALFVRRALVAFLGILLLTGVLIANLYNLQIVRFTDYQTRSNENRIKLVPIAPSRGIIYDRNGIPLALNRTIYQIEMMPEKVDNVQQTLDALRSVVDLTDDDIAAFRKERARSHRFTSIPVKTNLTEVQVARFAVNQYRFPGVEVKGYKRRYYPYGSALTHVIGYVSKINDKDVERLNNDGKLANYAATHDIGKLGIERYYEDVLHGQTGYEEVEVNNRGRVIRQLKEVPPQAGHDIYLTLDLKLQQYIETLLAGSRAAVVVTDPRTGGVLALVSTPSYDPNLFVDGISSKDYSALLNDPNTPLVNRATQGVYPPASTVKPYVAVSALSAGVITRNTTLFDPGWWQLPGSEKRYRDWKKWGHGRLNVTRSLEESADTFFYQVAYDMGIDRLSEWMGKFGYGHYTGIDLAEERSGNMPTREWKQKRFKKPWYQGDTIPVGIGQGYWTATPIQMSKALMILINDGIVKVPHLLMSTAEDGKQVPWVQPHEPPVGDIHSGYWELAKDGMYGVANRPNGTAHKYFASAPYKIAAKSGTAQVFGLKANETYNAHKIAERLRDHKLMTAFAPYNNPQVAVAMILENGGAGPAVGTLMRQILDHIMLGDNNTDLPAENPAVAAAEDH

[4] = target: T4, PBP4 of K. pneumoniae SR22291 (Klebsiella pneumoniae, UniProt A6TEK1); assay: competition with […]benzylpenicillin for PBPs; assay type: binding; details: covalent
T4 construct: gene dacB
T4 sequence (A6TEK1 21-477): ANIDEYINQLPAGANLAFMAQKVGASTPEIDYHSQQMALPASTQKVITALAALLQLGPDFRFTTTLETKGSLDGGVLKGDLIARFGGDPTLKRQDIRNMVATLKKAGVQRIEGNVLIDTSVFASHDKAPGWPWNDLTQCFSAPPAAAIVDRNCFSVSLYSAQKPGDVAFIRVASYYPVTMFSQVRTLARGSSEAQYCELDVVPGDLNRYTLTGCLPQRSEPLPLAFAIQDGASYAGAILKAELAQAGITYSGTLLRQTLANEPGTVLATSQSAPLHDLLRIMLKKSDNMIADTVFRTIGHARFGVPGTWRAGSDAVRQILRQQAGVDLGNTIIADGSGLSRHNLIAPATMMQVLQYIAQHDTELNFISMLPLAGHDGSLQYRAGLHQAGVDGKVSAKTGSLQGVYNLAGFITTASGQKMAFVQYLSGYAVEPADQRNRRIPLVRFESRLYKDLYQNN

[5] = target: T5, PBP4 of P. aeruginosa ATCC 27853 (Pseudomonas aeruginosa, UniProt Q9HZG1); assay: competition with […]benzylpenicillin for PBPs; assay type: binding; details: covalent; read-out: IC50 (μg/ml) / P. aeruginosa ATCC 27853 / Cefiderocol
T5 construct: gene PA3047
T5 sequence (Q9HZG1 entry or part of it): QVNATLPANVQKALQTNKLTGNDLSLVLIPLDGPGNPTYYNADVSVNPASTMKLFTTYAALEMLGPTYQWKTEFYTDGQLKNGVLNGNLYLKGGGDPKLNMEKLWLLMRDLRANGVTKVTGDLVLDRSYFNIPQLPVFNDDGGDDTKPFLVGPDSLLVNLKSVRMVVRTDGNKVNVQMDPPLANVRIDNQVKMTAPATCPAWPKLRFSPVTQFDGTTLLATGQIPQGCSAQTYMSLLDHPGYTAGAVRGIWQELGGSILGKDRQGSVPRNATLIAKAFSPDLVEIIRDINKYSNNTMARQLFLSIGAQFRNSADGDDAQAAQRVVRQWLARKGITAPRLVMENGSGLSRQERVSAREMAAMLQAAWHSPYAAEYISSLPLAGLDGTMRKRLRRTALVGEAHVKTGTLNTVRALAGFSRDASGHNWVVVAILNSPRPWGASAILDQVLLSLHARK

[6] = target: T6, PBP1a of P. aeruginosa ATCC 27853 (Pseudomonas aeruginosa, UniProt Q07806); assay: competition with […]benzylpenicillin for PBPs; assay type: binding; details: covalent
T6 construct: gene mrcA
T6 sequence (Q07806 whole entry): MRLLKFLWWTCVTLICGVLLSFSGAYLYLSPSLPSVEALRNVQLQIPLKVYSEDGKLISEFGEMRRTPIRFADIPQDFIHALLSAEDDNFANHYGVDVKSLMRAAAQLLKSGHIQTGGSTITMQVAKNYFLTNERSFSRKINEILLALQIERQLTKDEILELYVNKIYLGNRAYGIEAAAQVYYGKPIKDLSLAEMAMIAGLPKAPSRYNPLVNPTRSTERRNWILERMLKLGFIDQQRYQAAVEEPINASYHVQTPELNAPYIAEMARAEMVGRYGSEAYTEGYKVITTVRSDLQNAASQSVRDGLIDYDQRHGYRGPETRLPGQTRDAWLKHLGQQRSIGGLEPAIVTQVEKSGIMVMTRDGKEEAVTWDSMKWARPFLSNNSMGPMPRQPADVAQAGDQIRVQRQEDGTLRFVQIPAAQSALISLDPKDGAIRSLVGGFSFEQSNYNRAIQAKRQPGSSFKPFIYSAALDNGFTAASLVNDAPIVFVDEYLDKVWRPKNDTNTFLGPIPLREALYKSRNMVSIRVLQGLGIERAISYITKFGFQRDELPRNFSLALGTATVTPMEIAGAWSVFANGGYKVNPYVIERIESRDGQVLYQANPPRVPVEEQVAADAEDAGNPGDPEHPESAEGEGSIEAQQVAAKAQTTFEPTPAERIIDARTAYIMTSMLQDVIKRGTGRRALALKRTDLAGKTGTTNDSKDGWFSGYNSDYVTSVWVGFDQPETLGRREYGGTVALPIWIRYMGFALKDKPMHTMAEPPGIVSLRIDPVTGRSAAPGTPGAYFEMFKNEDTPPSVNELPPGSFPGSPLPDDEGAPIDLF

[7] = target: T7, PBP3 of P. aeruginosa ATCC 27853 (Pseudomonas aeruginosa, UniProt G3XD46); assay: competition with […]benzylpenicillin for PBPs; assay type: binding; details: covalent
T7 construct: gene ftsI
T7 sequence (G3XD46 whole entry): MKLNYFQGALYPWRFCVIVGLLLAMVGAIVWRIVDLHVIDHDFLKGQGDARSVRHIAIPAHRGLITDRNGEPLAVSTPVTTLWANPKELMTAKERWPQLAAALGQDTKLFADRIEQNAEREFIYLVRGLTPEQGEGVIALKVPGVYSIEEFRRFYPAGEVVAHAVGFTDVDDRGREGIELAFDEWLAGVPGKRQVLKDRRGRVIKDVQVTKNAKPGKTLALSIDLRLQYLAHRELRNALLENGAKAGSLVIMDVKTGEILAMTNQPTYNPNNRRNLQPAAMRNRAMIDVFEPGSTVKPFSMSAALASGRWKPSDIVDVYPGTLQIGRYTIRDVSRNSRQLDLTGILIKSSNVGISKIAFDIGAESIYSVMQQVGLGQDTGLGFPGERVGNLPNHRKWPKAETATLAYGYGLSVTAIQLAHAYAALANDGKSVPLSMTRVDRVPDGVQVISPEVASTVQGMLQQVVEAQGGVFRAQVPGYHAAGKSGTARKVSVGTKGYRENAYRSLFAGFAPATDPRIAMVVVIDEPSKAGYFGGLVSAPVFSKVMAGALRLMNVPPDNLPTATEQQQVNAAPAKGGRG

[8] = target: T8, PBP2 of K. pneumoniae SR22291 (Klebsiella pneumoniae, UniProt A6T696); assay: competition with […]benzylpenicillin for PBPs; assay type: binding; details: covalent
T8 construct: gene mrdA
T8 sequence (A6T696 1-633): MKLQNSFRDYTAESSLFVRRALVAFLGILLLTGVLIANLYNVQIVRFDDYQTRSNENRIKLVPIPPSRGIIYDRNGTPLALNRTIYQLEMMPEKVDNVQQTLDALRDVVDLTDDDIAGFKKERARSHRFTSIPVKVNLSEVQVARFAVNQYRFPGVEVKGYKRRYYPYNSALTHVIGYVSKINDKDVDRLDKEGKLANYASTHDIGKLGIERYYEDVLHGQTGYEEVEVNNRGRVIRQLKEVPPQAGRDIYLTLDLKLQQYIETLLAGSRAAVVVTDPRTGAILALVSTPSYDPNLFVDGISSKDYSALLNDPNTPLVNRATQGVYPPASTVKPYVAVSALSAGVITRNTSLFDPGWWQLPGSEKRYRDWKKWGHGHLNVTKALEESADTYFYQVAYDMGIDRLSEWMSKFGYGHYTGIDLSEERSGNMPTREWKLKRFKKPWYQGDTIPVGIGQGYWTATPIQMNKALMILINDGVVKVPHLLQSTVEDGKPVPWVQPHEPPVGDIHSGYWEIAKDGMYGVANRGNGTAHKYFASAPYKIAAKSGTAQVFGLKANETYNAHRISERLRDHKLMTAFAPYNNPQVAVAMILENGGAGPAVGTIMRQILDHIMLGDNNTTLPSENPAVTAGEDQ

[9] = read-out: IC50 (μg/ml) / E. coli NIHJ JC-2 / Cefiderocol (converted)
[10] = read-out: IC50 (μg/ml) / K. pneumoniae SR22291 / Cefiderocol (converted)
[11] = read-out: IC50 (μg/ml) / E. coli NIHJ JC-2 / Ceftazidime
[12] = read-out: IC50 (μg/ml) / K. pneumoniae SR22291 / Ceftazidime (converted)
[13] = read-out: IC50 (μg/ml) / P. aeruginosa ATCC 27853 / Ceftazidime (converted)

Row | SMILES | IC50 [1, 9] [nM] | IC50 (μg/ml) / A. baumannii ATCC 17978 ^a / Cefiderocol [2] [µg/mL] | IC50 [3, 9] [nM] | IC50 [4, 10] [nM] | pIC50 [5] | IC50 ([6]; read-out: IC50 (μg/ml) / P. aeruginosa ATCC 27853 / Cefiderocol (converted)) [nM] | IC50 ([7]; read-out: IC50 (μg/ml) / / Cefiderocol (converted)) [nM] | IC50 [8, 10] [nM] | pIC50 [1, 11] | IC50 (μg/ml) / A. baumannii ATCC 17978 ^a / Ceftazidime [2] [µg/mL] | pIC50 [3, 11] | IC50 [4, 12] [nM] | IC50 [6, 13] [nM] | IC50 [7, 13] [nM] | IC50 [8, 12] [nM]
1 | CC(C)(O/N=C(\C(=O)N[C@@H]1C(=O)N2C(C(=O)[O-])=C(C[N+]3(CCNC(=O)c4ccc(O)c(O)c4Cl)CCCC3)CS[C@H]12)c1csc(N)n1)C(=O)O [cefiderocol] | 5050 | 1.05 (≈ 1.4 µM) | 2820 | 372 | < 5.27 | 1130 | 79.8 | 83.8 | – | – | – | – | – | – | –
2 | CC(C)(O/N=C(\C(=O)N[C@@H]1C(=O)N2C(C(=O)[O-])=C(C[n+]3ccccc3)CS[C@H]12)c1csc(N)n1)C(=O)O [ceftazidime] | – | – | – | – | < 5.14 | – | – | – | < 5.14 | 0.91 (≈ 1.66 µM) | < 5.14 | 6590 | 6620 | 165 | 750
